This note sets out measurements from PubChem BioAssay (NCI).

Holding throughout (assay): inhibition of tumour cell growth, NCI panel, 48 h
The test system of experiment [1] is SK-MEL-2 melanoma.
Experiment [2] deals with K-562 leukemia.
The subject of experiment [3] is CAKI-1 renal.
Experiment [4] concerns 786-0 renal.
Experiment [5] deals with EKVX NSCLC.
In experiment [6] the test system is NCI-H460 lung.
Experiment [7] relates to SF-295 CNS.
The subject of experiment [8] is OVCAR-4 ovarian.
Experiment [9] concerns SK-MEL-5 melanoma.
Experiment [10] deals with HCC-2998 colon.

Each structure is given as a SMILES string.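 In this assay, cells in 96-well plates receive the compound at five concentrations for 48 hours. Endpoints are linearly interpolated between the surrounding concentrations. GI50 = concentration required for 50% inhibition of growth. TGI is the concentration that stops growth completely.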

Take `Cc1cc(C)c(O)c(Cc2cccc(Cc3cc(C)cc(C)c3O)c2O)c1`: the TGI in experiment [1], in experiment [2], in experiment [3], in experiment [4], in [5] and in [6] was over 100 µM each time. The TGI in experiment [7], in experiment [8] and in experiment [9] was over 100 µM throughout.
Take `Cc1ccc([N+](=O)[O-])cc1NC(=O)C(=O)Cc1occc(=O)c1O`: the TGI in [2], in experiment [3], in experiment [4], in experiment [5], in [6] and in experiment [7] was over 100 µM throughout. The TGI in experiment [10] and in [9] was over 100 µM throughout.
With `Cc1ccc(S(=O)(=O)/N=c2\ssc(Nc3ccccc3)c2Cl)cc1`, the GI50 in experiment [1] was 18.3 µM; in experiment [2], 18.4 µM; in experiment [3], 7.6 µM; in experiment [4], 27.7 µM; in experiment [5], 6.03 µM; in [6], 9.02 µM. In addition, the GI50 in experiment [7] was 1.15 µM; in [8] it was 33.6 µM; in experiment [9], 6.2 µM. The TGI in experiment [1] is over 50 µM; in [2] it was over 50 µM; in experiment [3], 21.1 µM; in experiment [4], over 50 µM; in experiment [5] it was 16.9 µM; in experiment [6], 19.6 µM. Moreover, the TGI is 12.4 µM in experiment [7], over 50 µM in experiment [8] and 12.4 µM in experiment [9].
Consider `O=C(/C=C\c1cccc2ccccc12)c1cccs1`, for which the TGI in experiment [2] was 8.79 µM; in experiment [3], 22.7 µM; in [4] it was 22.5 µM; in experiment [5], 25.9 µM; in experiment [6], 27.7 µM; in experiment [7], 34.6 µM. Further, the figures for the TGI in experiment [8], in [10] and in experiment [9] were 32.9 µM, 30 µM and 26.1 µM, respectively.
In the case of `Cc1n[nH]c(=S)n1/N=C/c1ccc(F)c(Oc2ccccc2)c1`, the GI50 in [2] was 54.5 µM; in [3] it was 0.496 µM; in [4], 42.3 µM; in experiment [5], 32.8 µM; in experiment [6] it was 39 µM; in experiment [7], 57.8 µM. Moreover, the GI50 in [8] was 44.9 µM; in experiment [10], 69.5 µM; in experiment [9], 16.1 µM. Further, the TGI in [2] is over 100 µM; in [3] it was 0.944 µM; in [4], over 100 µM; in experiment [5] it was 99.4 µM; in experiment [6] it was over 100 µM; in experiment [7], over 100 µM. Further, the TGI in [8] is over 100 µM; in [10] it was over 100 µM; in experiment [9], 33.4 µM.
As for `COc1cc(/C=C2\[C@H]3c4c(c(OC)c(C)c(OC)c4OC)C[C@@H](C(=O)N2Cc2ccccc2)N3C(=O)OC(C)C)c(OC)c(C)c1OC`, the TGI in experiment [1], in experiment [2], in experiment [4], in [5], in [6] and in [7] was over 100 µM throughout. Also, the TGI in experiment [8], in [10] and in [9] was over 100 µM throughout.
As for `Cc1cc(O)c(C(c2cccnc2)c2c(O)cc(C)[nH]c2=O)c(=O)[nH]1`, the TGI in experiment [2], in [3], in experiment [4], in experiment [5], in [6] and in [7] was over 100 µM in each case. The TGI in experiment [8] and in experiment [9] was over 100 µM each time.
As for `CCCc1cc2cc(-n3nc(C)c4c3CC(C)(C)CC4=O)cc(NC3CCC(O)CC3)c2c(=O)[nH]1` (stereo not given), the GI50 in experiment [1] was 0.441 µM; in experiment [2] it was 0.0502 µM; in [4], 0.874 µM; in [5], 1.53 µM; in experiment [6], 0.0744 µM; in experiment [7], 0.307 µM. Moreover, the results for the GI50 in [8], in [10] and in experiment [9] were over 39.6 µM, 0.144 µM and 0.241 µM, respectively. Moreover, the TGI in experiment [1] was over 100 µM; in experiment [2], over 100 µM; in [4] it was over 100 µM; in [5], over 100 µM; in [6] it was over 100 µM; in experiment [7], 2.06 µM. The TGI in experiment [8] is over 100 µM; in experiment [10], over 100 µM; in [9], 3.56 µM.
As for `COc1cc2nc(Sc3c([N+](=O)[O-])ncn3C)[nH]c2cc1OC`, the TGI in experiment [3] was 37.2 µM; in experiment [4], over 100 µM; in [5], 80.7 µM; in experiment [6], over 100 µM; in experiment [7] it was over 100 µM; in experiment [8] it was over 100 µM. Also, the values for the TGI in experiment [10] and in experiment [9] were over 100 µM and 63.6 µM, respectively.
As for `COc1ccc(C(c2ccc(C(C)C)cc(=O)c2O)c2ccc3cccnc3c2O)cc1` (stereo not given), the TGI is 30.1 µM in [1]; over 100 µM in [2]; 5.15 µM in experiment [3]; 5.61 µM in experiment [4]; 7.86 µM in experiment [5]; 10.1 µM in [6]. The TGI in experiment [7] came to 7.43 µM; in experiment [8] it was 23.9 µM; in experiment [9], 2.41 µM.
`COc1ccc(-c2cnc3ccnn3c2-c2cc(OC)c(OC)c(OC)c2)cc1`: the GI50 in experiment [1] was 3.94 µM; in experiment [2], 0.706 µM; in [4], 4.31 µM; in [6], 3.39 µM; in experiment [7], 1.93 µM; in [8] it was 9.69 µM. For the same molecule, the results for the GI50 in [10] and in experiment [9] were 3.79 µM and 4.53 µM, respectively. The TGI is over 100 µM in [1]; over 100 µM in [2]; over 100 µM in experiment [4]; over 100 µM in experiment [6]; 20 µM in experiment [7]; over 100 µM in [8]. The TGI in experiment [10] and in experiment [9] was over 100 µM each time.
